Earlier results on one molecule are cited in patent US20180263953A1, “Sustained Release Cannabinoid Formulations” (CannTab Therapeutics, Limited, priority 2016, published 2018).

SMILES strings stand for the structures.

For data set [1] the following is noted: low solubility and unknown permeability; NICHD/FDA Oral Formulations Platform Report 1.
The conditions of data set [2]: after administration.

As for `CCCCCc1cc(O)c2c(c1)OC(C)(C)[C@@H]1CCC(C)=C[C@@H]21` [Dronabinol, (−)-trans-Δ^9-tetrahydrocannabinol], the BCS class entry in data set [1] is “class 2 or class 4”. The “duration of appetite stimulant effect” value in data set [2] is at least 24 h.
